Results as given in patent publication US20190183908A1 (priority 2016, published 2019).
Entries after “also recorded” stand apart in the source; their conditions may differ.

Experiments:
UV irradiated mice = tested on: UV irradiated mice; design: species or system C57BL/6 mice; details: mouse, in vivo
iNOS [1] = tested on: iNOS; design: species or system mice; details: mouse, in vivo
TNF-α [2] = tested on: TNF-α; design: species or system mice; details: mouse, in vivo
MMP9 = tested on: MMP9; design: species or system mice; details: mouse, in vivo
[3] = tested on: LC3 in F4/80+ macrophages; design: species or system mice; details: mouse, in vivo
CD206+ M2 macrophages = tested on: CD206+ M2 macrophages; design: species or system mice; details: mouse, in vivo
[4] = tested on: LC3 in CD206+ macrophages; design: species or system mice; details: mouse, in vivo
Arginase1 = tested on: Arginase1; design: species or system mice; details: mouse, in vivo
M2:M1 macrophage ratio = tested on: M2:M1 macrophage ratio; design: species or system mice; details: mouse, in vivo
UV induced apoptosis = details: mouse, in vivo
[5] = tested on: nitrogen mustard exposed mice; details: mouse, in vivo, ip; cited from earlier work
[6] = tested on: UVR-irradiated skin of healthy adults; assay type: in vivo, human; details: N=4
[7] = tested on: UVR-irradiated skin of healthy adults; design: species or system human; details: in vivo
TNF-α [8] = tested on: TNF-α; design: species or system human; details: in vivo, po
iNOS [9] = tested on: iNOS; design: species or system human; details: in vivo, po
[10] = tested on: UVR-irradiated skin of healthy adults; design: species or system human; details: in vivo; remark: listed apart in the source
arginase-1 = tested on: arginase-1; design: species or system human; details: in vivo
[11] = tested on: LC3 in CD163+ macrophages; design: species or system human; details: in vivo, po
Valchlor-exposed skin [12] = assay type: in vivo, human
TNF-α [13] = tested on: TNF-α; design: species or system human; details: in vivo, po; remark: listed apart in the source
IL-6 = tested on: IL-6; design: species or system human; details: in vivo, po
COX-2 = tested on: COX-2; design: species or system human; details: in vivo, po
Valchlor-exposed skin [14] = tested on: Valchlor-exposed skin; design: species or system human; details: in vivo
Valchlor-exposed skin [15] = details: human, in vivo

With 25(OH)D the “Skin inflammation, wound progression and histological architecture” value (UV irradiated mice; ip) was “prevented excessive cutaneous damage; also recorded: delayed skin inflammation, arrested skin wound progression and accelerated wound repair; also recorded: protects from UV induced necrosis, dyskeratosis and vacuolation of the basal layer”, the “Gene expression of iNOS (NOS2)” value (iNOS [1]) was “significantly suppressed; also recorded: suppresses” and the “Gene expression of TNF (TNF-α)” value (TNF-α [2]) was “sustained inhibition; also recorded: significantly suppressed; also recorded: suppresses”. For the same compound, the “Gene expression of MMP9” value (MMP9) was “sustained inhibition; also recorded: significantly suppressed; also recorded: suppresses”, the “Elevation of macrophage-specific autophagy (LC3 punctae) compared to UV induced autophagy” value [3] was 5 fold and the “M2 macrophages (CD206+) relative to M1” value (CD206+ M2 macrophages) was “more M2 cells co-localizing with LC3; also recorded: expands the M2 compared to M1”. The “LC3+CD206+ cells in the dermis” value [4] was “significantly increased number of cells”, the “arg1 staining in CD206+ cells” value (Arginase1) was “selectively stain for arg1 in CD206+ cells” and the “M2:M1 ratio” value (M2:M1 macrophage ratio) was “significantly altered”. The “M2:M1 ratio in presence or absence of VD” value (M2:M1 macrophage ratio) was “comparable”, the “UV mediated apoptotic cell death (TUNEL+ cells)” value (UV induced apoptosis) was “significantly diminished” and the “Acute skin and systemic inflammation, tissue damage and mortality” value [5] was “sufficient to prevent acute skin and systemic inflammation and rescue mice from extensive tissue damage and mortality”.

For Cn1cnc(N)c2ncnc1-2 [3-MA, 3-methyladenine], the “UV-induced inflammation / VD mediated protection under blockade of autophagy” value (UV irradiated mice) was “exacerbated UV-induced inflammation; also recorded: reversed VD mediated protection from inflammation”, the “TNF-α under blockade of autophagy” value (TNF-α [2]) was “increasing” and the “MMP9 under blockade of autophagy” value (MMP9) was “increasing”. For the same compound, the “UV induced and VD induced autophagy” value [3] was “inhibited”, the “M2 macrophages / cellular profile under blockade of autophagy” value (CD206+ M2 macrophages) was “depleted functional M2 macrophages; also recorded: recapitulates cellular profile observed with UV while quenching LC3 expression” and the “LC3 expression in skin under inhibition of autophagy” value [4] was “abolished LC3 expression”. The “arg1 expression in CD206+ cells under inhibition of autophagy” value (Arginase1) was “diminished arg1 expression”.

In the case of C=C1CC[C@H](O)C/C1=C/C=C1\CCC[C@]2(C)[C@@H]([C@H](C)CCCC(C)C)CC[C@@H]12 [vitamin D3, cholecalciferol], the “Erythema Δa*24 hr, Mean (95% CI)” value [6] is reported as 2.0 (−2.1.6.1), the “Skin thickness after irradiation with higher doses” value [7] is reported as “trend for decreased skin thickness” and the “Skin expression of TNF-α compared to placebo” value (TNF-α [8]) is reported as “reduced expression; also recorded: lower”. The “Skin expression of iNOS compared to placebo” value (iNOS [9]) was “reduced expression; also recorded: lower”, the “Histologic structural damage (epidermal vesiculation, edema formation)” value [10] was “improved” and the “Arginase-1 protein expression localized to CD163+ macrophages” value (arginase-1) was “increased expression”. The “LC3 co-localized with CD163+ macrophages in human skin” value [11] was “upregulates cells that co-localize LC and CD163; also recorded: enhanced LC3”, the “Reduction in skin vesication on histology” value (Valchlor-exposed skin [12]; in vivo, po) was 50% and the Vesication by histology (Valchlor-exposed skin [12]; n=2) was 0%. The “Reduction in TNF-α” value (TNF-α [13]) was 66%, the “Reduction in IL-6” value (IL-6) was 112% and the “Reduction in COX-2” value (COX-2) was 80%. The “Skin thickness (arm 2 − arm 1) compared to placebo” value (Valchlor-exposed skin [14]) was “trend in decreasing thickness; also recorded: reduction in skin thickness”, the “Net skin symptom Irritation, Day 0” value (Valchlor-exposed skin [15]) was 1.0 and the “Net skin symptom Irritation, Day 1” value (Valchlor-exposed skin [15]) was 0.5. For the same compound, the “Net skin symptom Irritation, Day 2” value (Valchlor-exposed skin [15]) was 1.1, the “Net skin symptom Irritation, Day 3” value (Valchlor-exposed skin [15]) was 0.8 and the “Net skin symptom Irritation, Day 4” value (Valchlor-exposed skin [15]) was 0.5. For the same compound, the “Net skin symptom Irritation, Day 5” value (Valchlor-exposed skin [15]) was 0.1, the “Net skin symptom Irritation, Day 6” value (Valchlor-exposed skin [15]) was −0.2 and the “Net skin symptom Irritation, Slope” value (Valchlor-exposed skin [15]) was −0.1202 ± 0.05. For the same compound, the “Net skin symptom Warmth, Day 0” value (Valchlor-exposed skin [15]) was 1.0, the “Net skin symptom Warmth, Day 1” value (Valchlor-exposed skin [15]) was 0.5 and the “Net skin symptom Warmth, Day 2” value (Valchlor-exposed skin [15]) was −0.2. For the same compound, the “Net skin symptom Warmth, Day 3” value (Valchlor-exposed skin [15]) was 0.0, the “Net skin symptom Warmth, Day 4” value (Valchlor-exposed skin [15]) was −1.0 and the “Net skin symptom Warmth, Day 5” value (Valchlor-exposed skin [15]) was 0.3. The “Net skin symptom Warmth, Day 6” value (Valchlor-exposed skin [15]) was −0.3, the “Net skin symptom Warmth, Slope” value (Valchlor-exposed skin [15]) was −0.1296 + 0.083 and the “Patient reported skin symptoms (warmth, irritation)” value (Valchlor-exposed skin [15]) was “demonstrable reduction; also recorded: decreased”. For the same compound, the “Skin pain, burning sensation, and itch” value (Valchlor-exposed skin [15]) was “no observable difference”.
